Data as given in patent US20220022465A1, “METHODS AND COMPOSITIONS FOR REPELLING BIRDS IN CROP PLANTS” (Bayer Aktiengesellschaft, priority 2019, published 2022).

Test system: pigeons
Experiment: Third repellency test 3.3, compared with pigeons offered untreated seeds in parallel at Day 0
Type: in vivo
Source text: The test procedure was however slightly changed compared to the trials in Examples 3.1 and 3.2. Indeed, instead of simply comparing the effect of the tested compositions against the untreated seeds offered to the pigeons at Day-1, here a set of the pigeons was also offered untreated seeds at Day 0 in parallel to the set of pigeons being offered the seeds treated with a composition. The results for the set of pigeons having received the treated seeds are therefore compared to the results for the set of pigeons having received the untreated seeds in parallel at Day 0 (instead of the results for the set of the pigeons having received the untreated seeds at Day-1). Two trials under this setting have been performed with different compositions.
Trial 1: • Black pepper at the dose of 40.5 ml/50000 corn seeds • Garlic at the dose of 4.5 ml/50000 corn seeds • Mixture of Black pepper (90%) and garlic (10%) at the dose of 45 ml/50000 corn seeds
Trial 2: • Black pepper at the dose of 40.5 ml/50000 corn seeds • Garlic at the dose of 4.5 ml/50000 corn seeds • Mixture of Black pepper (90%) and garlic (10%) at the dose of 45 ml/50000 corn seeds • Thiram at the dose of 45 ml/50000 corn seeds

## CN(C)C(=S)SSC(=S)N(C)C [Thiram]
Trial 2, 45 ml per 50000 maize seeds
  Percentage (%) of reduction of feed consumption: 65%
Test 3.3, doses of Table 4
  Repellency effect on seed consumption, in words: good repellency effect on seed consumption
